Test results as given in patent EP1056700B1, “MEDICINAL USES OF PHENYLALKANOLS AND DERIVATES” (ZingoTX Pty Ltd, priority 1997, dated 1999).

Legend:
[1] = test system: guinea pig atria; assay: Organ bath assay on isolated guinea pig atria (rate and force of contraction)
Description: Male guinea pigs, 3-4 weeks old, were killed by rapid cervical dislocation without induced anaesthesia. Then, the guinea pigs were dissected to isolate the atria which were immediately mounted vertically in an organ bath containing Krebs-Henseleit solution oxygenated with carbogen.
One gram tension was applied to the atria and the base line continuously adjusted until it was stable for 20 mins. The rate and force of contraction were recorded using Mac Lab equipment.
Test substances in DMSO were assayed to a maximum concentration of 50 µM at a final concentration of 2.5 % of DMSO.

[2] = test system: DRG neuronal cells; assay: Peak [Ca^2+]i transients in cultured dorsal root ganglion neurons (Fura-2); assay type: cell-based, rat; settings: for Number of capsaicin-sensitive cells responding / Peak [Ca^2+]i (Average ±SD): 2 mM Ca^2+
Description: DRG from neonatal (3-5 days old) rat or adult Sprague-Dawley rats were incubated in Hanks CMF saline with 0.05% collagenase and 0.25% trypsin for 25 min at 37° C. Individual cells were obtained by trituration with fire polished Pasteur pipettes of diminishing diameters. Neurones were isolated from the cell suspension in 30% Percoll and then plated on collagen coated coverslips or in 24-well plates, then cultured in neurobasal medium with B27 supplement, 50 ng/ml 2.5 S nerve growth factor, 2 mM 1-glutamine and 100 U/ml penicillin/streptomycin. Cultures were maintained at 37° C with 5% CO2. 30% Percoll increases the percentage of capsaicin-sensitive DRG neurones up to 70%. For peak [Ca^2+]i transients measurements, cells on coverslips were incubated with 5 µM Fura-2 AM for 30 min at 37° C. The coverslips were then mounted on a chamber attached to a fast sample application perfusion system which allows changing solutions in the second range. Recordings were made on the stage of a Nikon Diaphot inverted microscope fitted with a Nikon 40 x Fluo (NA 0.85) DL Ph3 or 40 x Fluo (NA 1.3) oil objective. [Ca^2+]i was calculated from dual excitation wavelength (340/380 nm) fluorescence measurements following an intracellular calibration procedure by the Grynkiewicz equation, using MCID M2/M4 v.3.0 (Imaging Res. Inc.) software. Cells were continuously perfused with a solution consisting of 140 mM NaCl, 2 mM CaCl2, 5 mM KCl, 20 mM HEPES, 10 mM glucose, pH 7.4. To study KCl evoked depolarisation, 50 mM NaCl was replaced by equimolar KCl. Cytoplasmic localisation of Fura-2 was tested with the Mn^2+ quenching technique (Dedov and Roufogalis, 1998). All experiments were performed at room temperature (20-23°C).
Typical changes in [Ca^2+]i upon depolarisation were evoked by 50 mM KCl and by application of 1 µM capsaicin; both were applied for 30 sec. Capsaicin-evoked peak [Ca^2+]i transients are characterised by a fast rise and long-steady state [Ca^2+]i clearance from the cytoplasm. In capsaicin-sensitive cells the half-time of cytoplasmic Ca^2+ clearance was proportional to the amplitudes of peak [Ca^2+]i transients.
To examine the effect of gingerol derivatives, one or several compounds in succession at a concentration of 10 µM were applied for 1 min to the DRG neuronal cells followed by washing out for 4 min with physiological solution. To the capsaicin-sensitive cells, 10 µM capsaicin and 50 mM KCl were applied, respectively, to confirm the viability of the cells. In addition, morphological appearances of the cells were also examined at the end of experiment. […]

[3] = target: T1, SR Ca^2+-ATPase (Canis lupus familiaris, UniProt O46674); assay: Sarcoplasmic reticulum Ca^2+-ATPase assay; assay type: biochemical, dog; settings: result in words
T1 construct: Effect of gingerols and their derivatives on the Ca^2+-ATPase activity of dog cardiac SR; from tissue; host or cells: dog heart (cardiac sarcoplasmic reticulum)
T1 sequence (O46674 whole entry): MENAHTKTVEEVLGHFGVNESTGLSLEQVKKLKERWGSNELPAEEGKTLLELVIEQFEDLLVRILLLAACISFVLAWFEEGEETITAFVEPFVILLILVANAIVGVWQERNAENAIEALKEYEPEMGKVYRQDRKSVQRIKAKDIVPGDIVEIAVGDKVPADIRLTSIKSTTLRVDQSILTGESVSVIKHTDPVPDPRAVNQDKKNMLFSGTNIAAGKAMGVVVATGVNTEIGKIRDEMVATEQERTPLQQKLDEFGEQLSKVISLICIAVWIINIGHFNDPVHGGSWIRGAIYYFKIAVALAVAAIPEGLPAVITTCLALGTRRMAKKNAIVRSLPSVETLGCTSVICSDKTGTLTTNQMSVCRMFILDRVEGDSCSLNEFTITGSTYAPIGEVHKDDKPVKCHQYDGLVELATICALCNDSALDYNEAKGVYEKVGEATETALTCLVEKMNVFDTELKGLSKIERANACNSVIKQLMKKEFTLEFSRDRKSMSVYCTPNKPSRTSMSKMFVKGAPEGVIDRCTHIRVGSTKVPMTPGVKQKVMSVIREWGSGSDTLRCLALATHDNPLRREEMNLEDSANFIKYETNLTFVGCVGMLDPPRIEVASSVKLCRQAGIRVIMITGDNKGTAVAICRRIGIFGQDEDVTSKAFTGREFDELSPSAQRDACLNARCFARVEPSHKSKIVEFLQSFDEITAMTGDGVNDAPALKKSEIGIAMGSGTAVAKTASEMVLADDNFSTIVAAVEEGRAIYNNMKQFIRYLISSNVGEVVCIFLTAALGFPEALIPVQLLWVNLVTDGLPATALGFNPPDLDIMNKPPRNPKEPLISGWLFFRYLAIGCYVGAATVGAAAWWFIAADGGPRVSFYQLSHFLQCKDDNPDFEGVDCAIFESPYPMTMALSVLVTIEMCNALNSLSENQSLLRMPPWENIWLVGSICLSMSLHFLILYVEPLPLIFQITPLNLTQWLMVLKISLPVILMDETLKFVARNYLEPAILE
Description: A portion at each concentration (54 µl) was aliquoted into 4 designated wells of the microplate (two of four wells were controls). Each well was mixed with ATP solution (20 mM, 6 µl), except the controls, using an 8 channel pipette. The controls were assayed in the absence of ATP or calcium.
The plate was incubated with the lid on, for 30 min at 37°C, colour reagent (160 µl) was then added and mixed with citrate solution (34%, 30 µl). The plate was developed at room temperature for 30 min then absorbance at 655 nm was read from the microplate reader. The Ca^2+-ATPase activity was quantitated, from a Pi standard curve, as concentration of liberated inorganic phosphate.
Stock solutions (10 mM) of test substance were prepared in DMSO, then series dilutions were made either in DMSO or in 1M HEPES to produce the dose-response concentrations. The maximum concentration of DMSO in the final assay solution was 2.5%.
Each concentration of test substance was assayed in duplicate in the presence and absence of ATP or calcium. Phosphate standards are run on each plate as follows:
Effect of gingerols and their derivatives on the Ca^2+-ATPase activity of dog cardiac SR.

[4] = test system: Cyclo-oxygenase (COX); assay: Cyclo-oxygenase assay in RBL 2H3 cells (PGD2 EIA); assay type: cell-based, rat
Description: Cyclo-oxygenase (COX) assay was performed with cells in culture prepared from rat basophilic leukemia (RBL) 2H3 cell lines. Cells were cultured in EMEM containing 10% fetal calf serum and antibiotic until cells reached confluence. Harvested cells were subsequently seeded on 24-well plates at 1 x 10^6 cells/ml then incubated at 37°C for 3 hours. Cells were washed twice with incubation buffer (1.5 ml) containing 5 mM Hepes, 140 mM NaCl, 5 mM KCl, 0.6 mM MgCl2, 1 mM CaCl2 and […]. Cells were then covered with 0.49 ml of buffer, followed by addition of samples/solvents (0.005 ml) and incubated at 37 °C for 5 min on an orbital shaker. Arachidonic acid (0.005 ml, containing 50% EtOH) was subsequently added, and the plate was incubated at similar conditions for a further 10 min. The supernatant (0.1 ml) was aliquoted for methoxime derivatisation of PGD2, which was carried out by heating the supernatant with methoxime solution (1:1) at 60 °C for 30 min according to the instructions provided with the kit. The resultant solution was diluted with EIA buffer and stored on ice for EIA, following the protocol provided with the kit.
Validation of COX enzyme activity was carried out using EIA in which the enzyme activity was characterised against various concentrations of AA and a time course of enzyme activity.
[…] Indomethacin was used as reference compound. The concentration of DMSO in the assay was maintained at 1.5%.

[5] = target: T2, Lipoxygenase (LP) (Rattus norvegicus, UniProt P12527); assay: Lipoxygenase assay with cell-free enzyme from RBL 2H3 cells (EIA); assay type: biochemical; settings: for activity at 10 µM: final concentration of 10 µM
T2 construct: cell-free enzyme (Wong et al, 1991) prepared from rat basophilic leukemia (RBL) 2H3 cell lines; endogenous in cells; host or cells: RBL 2H3 (rat basophilic leukemia), 15,000 g supernatant of cells disrupted by nitrogen cavitation
T2 sequence (P12527 1-673): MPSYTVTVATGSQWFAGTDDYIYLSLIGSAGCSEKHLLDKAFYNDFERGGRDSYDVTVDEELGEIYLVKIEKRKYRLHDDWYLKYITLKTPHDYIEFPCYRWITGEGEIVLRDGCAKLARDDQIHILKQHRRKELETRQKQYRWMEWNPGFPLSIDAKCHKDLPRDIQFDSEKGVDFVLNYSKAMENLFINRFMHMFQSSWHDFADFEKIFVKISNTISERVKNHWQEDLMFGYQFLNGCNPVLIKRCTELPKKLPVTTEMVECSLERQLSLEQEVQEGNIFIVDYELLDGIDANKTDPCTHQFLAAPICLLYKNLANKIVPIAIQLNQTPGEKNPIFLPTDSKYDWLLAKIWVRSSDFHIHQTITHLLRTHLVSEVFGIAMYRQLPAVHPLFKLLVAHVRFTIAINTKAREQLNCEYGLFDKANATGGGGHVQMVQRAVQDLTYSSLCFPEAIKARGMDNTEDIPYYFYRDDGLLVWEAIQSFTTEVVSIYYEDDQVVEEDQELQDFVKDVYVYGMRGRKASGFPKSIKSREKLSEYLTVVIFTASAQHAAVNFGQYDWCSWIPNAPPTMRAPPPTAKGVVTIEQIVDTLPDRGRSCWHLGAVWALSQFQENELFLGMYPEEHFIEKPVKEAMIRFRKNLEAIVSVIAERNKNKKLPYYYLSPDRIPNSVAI
Description: Lipoxygenase (LP) assay was performed with cell-free enzyme (Wong et al, 1991) prepared from rat basophilic leukemia (RBL) 2H3 cell lines. Cells were cultured in EMEM containing 10% fetal calf serum and antibiotic until cells reached confluence. Harvested cells were resuspended in Hepes (10 mM) buffer, pH 7.4, containing 1 mM EDTA at 1 x 10^7 cells/ml, and disrupted by nitrogen cavitation using a Parr bomb at 750 psi for 15 min. The broken cells were centrifuged at 15,000 g for 30 min. Aliquots (0.1 ml) of the supernatant were preincubated with or without drugs in Hepes buffer (10 mM Hepes, pH 7, 1 mM EDTA and 150 mM NaCl) for 5 min, and the reaction was initiated with the addition of 50 µl of CaCl2 (16 mM), 50 µl of ATP (2 mM), 5 µl of PAF (2.5 mg/ml) and 5 µl of AA (2.5 mM). The reaction mixture ([…]) was incubated at room temperature for a further 8 min, then diluted with EIA buffer at 1/200 and 1/2000 dilutions and stored on ice for EIA following the protocol provided with the kit.
Validation of LP enzyme activity was carried out by a UV spectrophotometric method in which the enzyme activity was characterised against various concentrations of Ca^2+, ATP, PAF and AA with the measurement of the formation of diene conjugated products of LP at 235 nm.
All compounds were dissolved in DMSO and assayed at a final concentration of 10 µM. NDGA was used as reference compound. The concentration of DMSO in the assay was maintained at 1.5%.

[6] = result in words, guinea pig atria

Question: Which results are given for COc1cc(CNC(=O)CCCC/C=C/C(C)C)ccc1O [Capsaicin, reference compound]?
Answer: tachycardial and inotropic effects on guinea pig atria ([1]; result in words): tachycardial and inotropic effects; Number of capsaicin-sensitive cells responding ([2]; high responses, 10 µM): 5; Peak [Ca^2+]i (Average ±SD) ([2]; high responses, 10 µM): 824 ± 122 (high responses) nM; evoked [Ca^2+]i transients ([2]; in Ca^2+-free medium or on application of ruthenium red (1 µM)): abolished or greatly diminished; Number of capsaicin-sensitive cells responding ([2]; low responses, 10 µM): 10; Peak [Ca^2+]i (Average ±SD) ([2]; low responses, 10 µM): 134 ± 78 (low responses) nM

Question: For CCCCCCCC(O)CC(=O)CCc1ccc2c(c1)OCO2 (centres unmarked) [drawing 42], which “SR Ca^2+-ATPase” value [3] is on record?
Answer: The value was “inactive”.

Question: How did the “time for tension to reach maximum after addition of a dose” value ([1]; guinea pig atria) turn out when C[C@H]1O[C@@H](O[C@H]2[C@@H](O)C[C@H](O[C@H]3[C@@H](O)C[C@H](O[C@H]4CC[C@@]5(C)[C@H](CC[C@@H]6[C@@H]5C[C@@H](O)[C@]5(C)[C@@H](C7=CC(=O)OC7)CC[C@]65O)C4)O[C@@H]3C)O[C@@H]2C)C[C@H](O)[C@@H]1O [Digoxin, reference compound] was run?
Answer: Its value is “a few mins”.

Question: Which “Cyclooxygenase activity % activity” value ([4]; 1 µM) does the source give for COc1ccc2c(c1)c(CC(=O)O)c(C)n2C(=O)c1ccc(Cl)cc1 [Indomethacin, reference compound] here?
Answer: The value was 23%.

Question: With CCCCCCCC=CC(=O)CCc1ccc(O)c(OC)c1 [[8]-shogaol, 1-(4-hydroxy-3-methoxyphenyl)dodecan-4-ene-3-one, reference compound] as the compound, how does the “Number of capsaicin-sensitive cells responding” value ([2]; 10 µM applied for 1 min) read?
Answer: The value was 2.

Question: What about the “Peak [Ca^2+]i (Average ±SD)” value ([2]; 10 µM applied for 1 min) of the same compound?
Answer: Its value is 110 ± 56 nM.

Question: What about the activity at 10 µM [5] of the same compound?
Answer: The activity at 10 µM was 0%.

Question: What about the “Cyclooxygenase activity % activity” value ([4]; final concentration of 10 µM) of the same compound?
Answer: Its value is 21%.

Question: What does the source list for COc1cc(CCC(=O)CC(O)CCCCCCC(O)CC(=O)CCc2ccc(O)c(OC)c2)ccc1O (centres unmarked) [bisgingerol, 5,12-dihydroxy-1,16-bis(4-hydroxy-3-methoxyphenyl)hexadecane-3,14-dione]?
Answer: FORCE OF CONTRACT^n [1, 6]: inactive; HEART RATE [1, 6]: inactive

Question: How did the “Number of capsaicin-sensitive cells responding” value ([2]; 10 µM applied for 1 min) turn out when CCCCCCCCCC(O)C(=O)c1ccc(O)c(OC)c1 (centres unmarked) [2-hydroxy-1-(4-hydroxy-3-methoxyphenyl)undecan-1-one] was run?
Answer: Its value is 2.

Question: And the “Peak [Ca^2+]i (Average ±SD)” value ([2]; 10 µM applied for 1 min)?
Answer: Its value is 215 ± 7 nM.

Question: And the activity at 10 µM [5]?
Answer: The activity at 10 µM was 61%.

Question: And the “Cyclooxygenase activity % activity” value ([4]; final concentration of 10 µM)?
Answer: The value was 95%.

Question: For CC(Cc1ccc(O)c(O)c1)C(C)Cc1ccc(O)c(O)c1 (centres unmarked) [NDGA, reference compound], which activity at 0.5 µM ([5]; 0.5 µM) is on record?
Answer: Its activity at 0.5 µM is 20%.
